In ChEMBL document CHEMBL1137697, “In vitro and in vivo antitrypanosomatid activity of 5-nitroindazoles” (Eur J Med Chem, 2009):
The source made the active and inactive calls. The calls are words filed in the database; no cut-off is given here.

How the values were obtained:
J774 [1] = test: Cytotoxicity in mouse J774 cells at 100 ug/mL after 24 hrs; format: cell-based; settings: j774, 24 h
Trypanosoma cruzi [2] = test: Antitrypanosomal activity against Trypanosoma cruzi bloodstream trypomastigote in mouse blood assessed as lysis of trypomastigotes at 250 ug/mL after 24 hrs relative to control; format: functional
J774 [3] = test: Cytotoxicity in mouse J774 cells at 100 ug/mL after 48 hrs; format: cell-based; settings: j774, 48 h
Leishmania infantum = test: Antileishmanial activity against Leishmania infantum MHOM/FR/91/LEM2259 promastigote assessed as lysis at 100 ug/mL after 72 hrs; format: functional
Leishmania amazonensis = test: Antileishmanial activity against Leishmania amazonensis MHOM/BR/PH8 promastigote assessed as lysis at 100 ug/mL after 72 hrs; format: functional
Leishmania braziliensis = test: Antileishmanial activity against Leishmania braziliensis MHOM/BR/75/M2903 promastigote assessed as lysis at 100 ug/mL after 72 hrs; format: functional
Trypanosoma cruzi [4] = test: Inhibition of respiration in Trypanosoma cruzi Tulahuen 2 assessed as oxygen uptake at 0.325 mM; format: functional; design: scale not given: the % may be the effect or the level left
Trypanosoma cruzi [5] = test: Inhibition of respiration in Trypanosoma cruzi Tulahuen 2 assessed as oxygen uptake at 0.156 mM; format: functional; design: scale not given: the % may be the effect or the level left
Trypanosoma cruzi [6] = test: Inhibition of respiration in Trypanosoma cruzi Tulahuen 2 assessed as oxygen uptake; format: functional, organism-based
Trypanosoma cruzi [7] = test: Inhibition of respiration in Trypanosoma cruzi Tulahuen 2 assessed as oxygen uptake at 0.467 mM; format: functional; design: scale not given: the % may be the effect or the level left
Trypanosoma cruzi [8] = test: Inhibition of respiration in Trypanosoma cruzi Tulahuen 2 assessed as oxygen uptake at 0.622 mM; format: functional; design: scale not given: the % may be the effect or the level left
Trypanosoma cruzi [9] = test: Antitrypanosomal activity against Trypanosoma cruzi bloodstream trypomastigote in mouse blood after 24 hrs relative to control; format: functional, organism-based
Trypanosoma cruzi [10] = test: Inhibition of respiration in Trypanosoma cruzi Tulahuen 2 assessed as oxygen uptake at 0.091 mM; format: functional; design: scale not given: the % may be the effect or the level left
Trypanosoma cruzi [11] = test: Inhibition of respiration in Trypanosoma cruzi Tulahuen 2 assessed as oxygen uptake at 0.272 mM; format: functional; design: scale not given: the % may be the effect or the level left
Trypanosoma cruzi [12] = test: Inhibition of respiration in Trypanosoma cruzi Tulahuen 2 assessed as oxygen uptake at 0.172 mM; format: functional; design: scale not given: the % may be the effect or the level left
Trypanosoma cruzi [13] = test: Inhibition of respiration in Trypanosoma cruzi Tulahuen 2 assessed as oxygen uptake at 0.181 mM; format: functional; design: scale not given: the % may be the effect or the level left
Trypanosoma cruzi [14] = test: Antitrypanosomal activity against Trypanosoma cruzi bloodstream trypomastigote infected in BALB/c mouse assessed as parasitemia at 30 mg/kg, po after 60 days by colorimetric method; format: functional, organism-based; design: dose 30 mg/kg
[15] = Toxicity in BALB/c mouse assessed as survival fraction at 30 mg/kg, po after 9 weeks; format: organism-based; design: dose 30 mg/kg, route oral; settings: in vivo
Trypanosoma cruzi [16] = test: Inhibition of respiration in Trypanosoma cruzi Tulahuen 2 assessed as oxygen uptake at 0.724 mM; format: functional; design: scale not given: the % may be the effect or the level left
Trypanosoma cruzi [17] = test: Inhibition of respiration in Trypanosoma cruzi Tulahuen 2 assessed as oxygen uptake at 0.426 mM; format: functional; design: scale not given: the % may be the effect or the level left
Trypanosoma cruzi [18] = test: Antitrypanosomal activity against Trypanosoma cruzi bloodstream trypomastigote infected in BALB/c mouse assessed as antibodies at 30 mg/kg, po after 60 days by colorimetric method; format: functional, organism-based; design: dose 30 mg/kg
Trypanosoma cruzi [19] = test: Inhibition of respiration in Trypanosoma cruzi Tulahuen 2 assessed as oxygen uptake at 0.543 mM; format: functional; design: scale not given: the % may be the effect or the level left
Trypanosoma cruzi [20] = test: Inhibition of respiration in Trypanosoma cruzi Tulahuen 2 assessed as oxygen uptake at 0.362 mM; format: functional; design: scale not given: the % may be the effect or the level left
Trypanosoma cruzi [21] = test: Inhibition of respiration in Trypanosoma cruzi Tulahuen 2 assessed as oxygen uptake at 0.258 mM; format: functional; design: scale not given: the % may be the effect or the level left
Trypanosoma cruzi [22] = test: Inhibition of respiration in Trypanosoma cruzi Tulahuen 2 assessed as oxygen uptake at 0.515 mM; format: functional; design: scale not given: the % may be the effect or the level left
Trypanosoma cruzi [23] = test: Inhibition of respiration in Trypanosoma cruzi Tulahuen 2 assessed as oxygen uptake at 1.030 mM; format: functional; design: scale not given: the % may be the effect or the level left
[24] = Toxicity in BALB/c mouse assessed as survival fraction at 50 mg/kg, po after 9 weeks; format: organism-based; design: dose 50 mg/kg, route oral; settings: in vivo
Trypanosoma cruzi [25] = test: Antitrypanosomal activity against Trypanosoma cruzi bloodstream trypomastigote infected in BALB/c mouse assessed as parasitemia at 50 mg/kg, po after 60 days by colorimetric method; format: functional, organism-based; design: dose 50 mg/kg
Trypanosoma cruzi [26] = test: Antitrypanosomal activity against Trypanosoma cruzi bloodstream trypomastigote infected in BALB/c mouse assessed as antibodies at 50 mg/kg, po after 60 days by colorimetric method; format: functional, organism-based; design: dose 50 mg/kg
Trypanosoma cruzi [27] = test: Inhibition of respiration in Trypanosoma cruzi Tulahuen 2 assessed as oxygen uptake at 1.032 mM; format: functional; design: scale not given: the % may be the effect or the level left

| IC50 (Trypanosoma cruzi [9]) | Structure (SMILES) | Activity (J774 [1]) | Activity (Trypanosoma cruzi [2]) | Activity (J774 [3]) | Activity (Leishmania infantum) | Activity (Leishmania amazonensis) | Activity (Leishmania braziliensis) | also measured |
| --- | --- | --- | --- | --- | --- | --- | --- | --- |
| – | COc1nn(CCOCCN(C)C)c2ccc([N+](=O)[O-])cc12.Cl | Non-toxic | 77% | Non-toxic | – | – | – | – |
| – | N=C(N)c1ccc(OCCCCCOc2ccc(C(=N)N)cc2)cc1 [PENTAMIDINE] | – | – | – | 100% | 100% | 100% | – |
| 12.5 µM | CN(C)CCCCCn1nc(OCc2ccccc2)c2cc([N+](=O)[O-])ccc21 | Toxic | 100% | Toxic | – | – | – | Activity (Trypanosoma cruzi [4]): 12%; Activity (Trypanosoma cruzi [5]): 99%; Activity (Trypanosoma cruzi [6]): Dose-dependent effect; Activity (Trypanosoma cruzi [7]): 11%; Activity (Trypanosoma cruzi [8]): 7% |
| – | CN(C)CCCCCn1nc(O)c2cc([N+](=O)[O-])ccc21 | Non-toxic | 29% | Non-toxic | – | – | – | – |
| – | CN(C)CCOCCn1nc(O)c2cc([N+](=O)[O-])ccc21 | Non-toxic | 18% | Non-toxic | – | – | – | – |
| – | O=[N+]([O-])c1ccc2c(c1)c(O)nn2CCOCCN1CCCCC1 | Non-toxic | 53% | Non-toxic | – | – | – | – |
| – | COc1nn(CCCCCN2CCCCC2)c2ccc([N+](=O)[O-])cc12.Cl | Toxic | 100% | Toxic | <60% | <60% | <60% | – |
| – | O=[N+]([O-])c1ccc2c(c1)c(OCc1ccccc1)nn2CCOCCN1CCCCC1 | Non-toxic | 44% | Non-toxic | – | – | – | – |
| 6.6 µM | O=[N+]([O-])c1ccc2c(c1)c(OCc1ccccc1)nn2CCCCCN1CCCCC1 | Toxic | 34% | Toxic | 100% | 100% | 100% | Activity (Trypanosoma cruzi [10]): 109%; Activity (Trypanosoma cruzi [11]): 100%; Activity (Trypanosoma cruzi [12]): 111% |
| – | O=[N+]([O-])c1ccc2c(c1)c(O)nn2CCCCCN1CCCCC1 | Non-toxic | 36% | Non-toxic | <60% | <60% | <60% | – |
| – | CN(C)Cc1ccccc1Cn1nc(O)c2cc([N+](=O)[O-])ccc21 | Non-toxic | 0% | Non-toxic | – | – | – | – |
| – | CN(C)c1ccc(C(=C2C=CC(=[N+](C)C)C=C2)c2ccc(N(C)C)cc2)cc1.[Cl-] [GENTIAN VIOLET] | – | 100% | – | – | – | – | – |
| – | O=C(Cn1ccnc1[N+](=O)[O-])NCc1ccccc1 [BENZNIDAZOLE] | – | – | – | – | – | – | survival at 1512 h [24]: 60%; Activity (Trypanosoma cruzi [25]): Active; Activity (Trypanosoma cruzi [26]): Active |
| > 50 µM | O=[N+]([O-])c1ccc2c(c1)c(O)nn2Cc1ccccc1CN1CCCCC1 | Non-toxic | 75% | Non-toxic | <60% | <60% | <60% | Activity (Trypanosoma cruzi [27]): 109% |

| Structure (SMILES) | IC50 (Trypanosoma cruzi [9]) | Activity (J774 [1]) | Activity (Trypanosoma cruzi [2]) | Activity (J774 [3]) | Activity (Leishmania infantum) | Activity (Leishmania amazonensis) | Activity (Leishmania braziliensis) | also measured |
| --- | --- | --- | --- | --- | --- | --- | --- | --- |
| CN(C)CCOCCn1nc(OCc2ccccc2)c2cc([N+](=O)[O-])ccc21 | 16.4 µM | Non-toxic | 87% | Non-toxic | 100% | 100% | 100% | Activity (Trypanosoma cruzi [13]): 66%; Activity (Trypanosoma cruzi [14]): Active; survival at 1512 h [15]: 87.5%; Activity (Trypanosoma cruzi [6]): Dose-dependent effect; Activity (Trypanosoma cruzi [16]): 9%; Activity (Trypanosoma cruzi [17]): 10%; Activity (Trypanosoma cruzi [18]): Active; Activity (Trypanosoma cruzi [19]): 11%; Activity (Trypanosoma cruzi [20]): 10% |
| COc1nn(CCOCCN2CCCCC2)c2ccc([N+](=O)[O-])cc12.Cl | > 50 µM | Non-toxic | 85% | Non-toxic | <60% | <60% | <60% | Activity (Trypanosoma cruzi [21]): 118%; Activity (Trypanosoma cruzi [22]): 130%; Activity (Trypanosoma cruzi [14]): Active; survival at 1512 h [15]: 87.5%; Activity (Trypanosoma cruzi [18]): Active; Activity (Trypanosoma cruzi [23]): 155% |
